# Where two headings read alike, the source gives them in different places.
# Legend:
# [1] = tested on: FGFR1 in H520 cells (phospho-ERK1/2); experiment: Drug washout Western blot assay, H520 cells; type: cell-based; details: H520; 2 hours exposure; 100, 300 and 600 nM; with and without washout
# SW780 cells = experiment: Oxic and anoxic anti-proliferative activity of the prodrugs; type: cell-based; details: for IC50: Homo sapiens, SW780, oxic conditions, read-out: Cellular Anti-proliferative IC50, SW780, Oxic
# [2] = Pulse radiolysis of prodrugs; type: physicochemical
# H520 cells = experiment: Oxic and anoxic anti-proliferative activity of the prodrugs
# SUM52 cells = experiment: as above
# [3] = Murine plasma pharmacokinetics assay; type: in vivo, NIH-III nude mice; details: for AUC(0-inf) / half-life / Cmax / Tmax / AUC(0-t): female, NIH-III nude, mouse, ip, plasma; for AUC(0-t): observed, read-out: AUC0-24
# Experimental: Compound 204 was formulated in water for injection at 2 or 4 mg/ml to be administered by intraperitoneal injection at 0.02 ml/g body weight to achieve a 40 or 80 mg/kg dose. Specific pathogen-free female NIH-III mice (Crl:NIH Lyst^bg Foxn1^nu Btk^xid) were obtained from the Vernon Jansen Unit (VJU), The University of Auckland. To minimize exogenous infection, mice were maintained in individually ventilated cages at 6 mice per cage (Sealsafe Plus Mouse AERO, Tecniplast) and handled in accordance with the Guide for the Care and Use of Laboratory Animals, The University of Auckland. Mice had access to water and food ad libitum. Following dosing, at the specified time points (0.5, 1, 2, 4, 6 and 24 hours, n=3 per time point) mice were anaesthetised (isoflurane inhalation) and blood collected through cardiac puncture. Mice were subsequently culled via cervical dislocation whilst anaesthetized. Blood was collected in ice cold tubes (BD Microtainer® containing K2EDTA) and centrifuged (7 minutes at 6,500 rpm) to separate the plasma fraction. Plasma samples were stored at −80° C. until analysis. Control mice were injected with vehicle only and plasma collected as described. Prior to analysis by LC-MS/MS, calibration standards were prepared in control mouse plasma with a synthetic standard of Compound 204. Plasma samples expected to be outside the range of these standards were diluted in control mouse plasma. Standards and samples were mixed with 3 volumes of ice-cold acetonitrile containing internal standard (2 uL) and then centrifuged at 13000 rpm for 10 minutes at 4° C. The resulting supernatant was diluted in 2 volumes of 0.01% formic acid in water and 10 uL injected onto the LC-MS/MS system using an established quantitative analysis method. Pharmacokinetic parameters resulting from model fit of Compound 204 plasma concentration-time data were then derived where Tmax=time at maximum concentration, Tmax-obs=time at maximum observed concentration, Cmax-obs=maximum concentration observed, Cmax=maximum concentration determined by model, T1/2=half-life of Compound 204 in plasma during elimination phase, AUC0-24=observed area under the mean concentration-time curve, AUC0-inf=area under the concentration-time curve of the model fit.
# [4] = tested on: SW780 (FGFR3-amplified bladder cancer) xenograft; experiment: Anti-tumour activity, SW780 xenograft; type: in vivo, NIH-III nude mice; details: q3dx4, IP
# Experimental: Specific pathogen-free homozygous female NIH-III nude mice (Charles River Laboratories, Wilmington, Mass.) were inoculated subcutaneously with a single cell suspension of SW780 cells (8×10^6 cells/100 μL with Matrigel; right flank) or SNU-16 cells (10×10^6 cells/100 μL; right flank). When tumour xenografts were established (typically 7-14 days for SW780 and 21-28 days for SNU-16) mice were randomized to treatment groups. Test compounds of the present invention were prepared in Water for Injection (WFI). Mice were dosed by intraperitoneal injection (0.01-0.03 ml/g) using the stated schedules and dose levels. […] Tumour size and body weights were measured at regular intervals. Tumour volume was calculated as […] (length×width^2)/6.
# [5] = tested on: SNU-16 (FGFR2-amplified) gastric cancer xenograft; experiment: Anti-tumour activity, SNU-16 xenograft; type: in vivo, NIH-III nude mice; details: 80 mg/kg, q7dx2, IP; to day 11
# Experimental: Specific pathogen-free homozygous female NIH-III nude mice (Charles River Laboratories, Wilmington, Mass.) were inoculated subcutaneously with a single cell suspension of SW780 cells (8×10^6 cells/100 μL with Matrigel; right flank) or SNU-16 cells (10×10^6 cells/100 μL; right flank). […] Test compounds of the present invention were prepared in Water for Injection (WFI). Mice were dosed by intraperitoneal injection (0.01-0.03 ml/g) using the stated schedules and dose levels. […] Tumour size and body weights were measured at regular intervals. Tumour volume was calculated as n (length×width^2)/6.
# [6] = tested on: 4T1 murine syngeneic breast cancer cells; experiment: Anti-tumour activity, murine 4T1 model; type: in vivo, BALB/c mice; details: 70 mg/kg IP, controls 16 days
# Experimental: Studies in BALB/c mice: 4T1 murine syngeneic breast cancer cells (7.5×10^6 cells/mouse) were implanted into the subcutaneous space, in the right flank of immunocompetent BALB/c female mice. Treatment with Compound 204 started at the stated day post cell-implant. Compound 204 was administered intraperitoneally at the stated dose and schedule in Water for Injection. Tumour measurements and body weight were recorded every day, until all tumours increased their volume 4-fold (RTV^4) from day0 of experimental assignment.
# [7] = tested on: SiHa xenograft (tumour hypoxia); experiment: EF5 immunostaining and MALDI imaging mass spectrometry assay; type: in vivo, NIH-III nude mice; details: 86 mg/kg IP, tumours collected after 24 hours; EF5 60 mg/kg
# Experimental: SiHa cervical tumour cells were implanted into the flanks of female NIH-III mice to form subcutaneous xenografts. […] Vehicle and drug-treated SiHa tumours were sectioned at 12 um and collected by melting. Five serial sections were collected from each sample such that sections 1, 3 and 5 were mounted on a standard glass slide for optical microscopy, while sections 2 and 4 were mounted on ITO coated glass slides for MALDI imaging. Slides were stored at −80° C. until required.
# Imaging mass spectrometry was performed at 30 um spatial resolution using a MALDI FT-ICR mass spectrometer (Bruker Solarix-XR 7T) operating in positive ion mode. […] They were washed in dH2O for 5 minutes, in Tris-Buffered saline (TBS) for 10 minutes and blocked with 10% goat serum in TBS and 1% Tween-20, for 1 h, at room temperature. Sections were then incubated with Alexa488-ELK3-51 antibody (Hypoxia-Imaging.org, University of Pennsylvania, US) that recognises EF5 adducts in hypoxic cells and counterstained with DAPI.
# [8] = read-out: Cellular Anti-proliferative IC50, H520, Oxic, oxic conditions
# [9] = read-out: Cellular Anti-proliferative IC50, SUM52, Oxic, oxic conditions
structure (smiles),measurement,setting,value
"COc1cc(OC)c(Cl)c(N2Cc3cnc(NC(C)C)nc3N(C3CCN(C(=O)/C=C/C[N+](C)(C)Cc4c([N+](=O)[O-])ncn4C)CC3)C2=O)c1Cl.[Br-] [Compound 202, (E)-4-(4-(3-(2,6-dichloro-3,5-dimethoxyphenyl)-7-(isopropylamino)-2-oxo-3,4-dihydropyrimido[4,5-d]pyrimidin-1(2H)-yl)piperidin-1-yl)-N,N-dimethyl-N-((1-methyl-4-nitro-1H-imidazol-5-yl)methyl)-4-oxobut-2-en-1-aminium bromide]",reversible or irreversible inhibition of FGFR1 in cells,[1],reversible inhibitors
same,IC50,SW780 cells,2120 nM
same,first order rate of fragmentation kfrag,[2],26 s⁻¹
same,melting point,,171 to 174 °C
same,IC50,H520 cells; [8],1730 nM
same,IC50,SUM52 cells; [9],737 nM
"COc1cc(OC)c(Cl)c(N2Cc3cnc(Nc4ccccc4)nc3N(C3CCN(C(=O)/C=C/C[N+](C)(C)Cc4c([N+](=O)[O-])ncn4C)CC3)C2=O)c1Cl.[Br-] [Compound 204, (E)-4-(4-(3-(2,6-dichloro-3,5-dimethoxyphenyl)-2-oxo-7-(phenylamino)-3,4-dihydropyrimido[4,5-d]pyrimidin-1(2H)-yl)piperidin-1-yl)-N,N-dimethyl-N-((1-methyl-4-nitro-1H-imidazol-5-yl)methyl)-4-oxobut-2-en-1-aminium bromide]",IC50,SW780 cells,1390 nM
same,fold less potent than the inhibitor compound 112 at inhibiting proliferation (deactivation),"SW780 cells; SW780, oxic",143 fold
same,first order rate of fragmentation kfrag,[2],30 s⁻¹
same,change of maximum plasma concentration and area under the plasma concentration-time curve with increase in dose,[3]; 40 and 80 mg/kg intraperitoneal,linear increase
same,time to maximum plasma concentration,[3]; doses of 40 and 80 mg/kg intraperitoneal,2 to 3 h
same,AUC(0-inf),"[3]; 40 mg/kg intraperitoneal, model fit",262 ± 10.8 µM·h
same,AUC(0-inf),"[3]; 80 mg/kg intraperitoneal, model fit",606 ± 103 µM·h
same,half-life,"[3]; 40 mg/kg, 40 mg/kg intraperitoneal, elimination phase, read-out: T1/2 (converted)",1.21 ± 0.06 h
same,Cmax,"[3]; 40 mg/kg, 40 mg/kg intraperitoneal, model fit, read-out: Cmax",54.9 ± 2.38 µM
same,Tmax,"[3]; 40 mg/kg, 40 mg/kg intraperitoneal, model fit, read-out: Tmax",1.75 ± 0.06 h
same,AUC(0-t),"[3]; 40 mg/kg, 40 mg/kg intraperitoneal",382 µM·h
same,Cmax,"[3]; 40 mg/kg, 40 mg/kg intraperitoneal, read-out: Cmax-obs",51.8 ± 7.46 µM
same,Tmax,"[3]; 40 mg/kg, 40 mg/kg intraperitoneal, read-out: Tmax-obs",2 h
same,half-life,"[3]; 80 mg/kg, 80 mg/kg intraperitoneal, elimination phase, read-out: T1/2 (converted)",1.79 ± 0.36 h
same,Cmax,"[3]; 80 mg/kg, 80 mg/kg intraperitoneal, model fit, read-out: Cmax",86.4 ± 10.4 µM
same,Tmax,"[3]; 80 mg/kg, 80 mg/kg intraperitoneal, model fit, read-out: Tmax",2.58 ± 0.36 h
same,AUC(0-t),"[3]; 80 mg/kg, 80 mg/kg intraperitoneal",~900 µM·h
same,Cmax,"[3]; 80 mg/kg, 80 mg/kg intraperitoneal, read-out: Cmax-obs",77.3 ± 14.7 µM
same,Tmax,"[3]; 80 mg/kg, 80 mg/kg intraperitoneal, read-out: Tmax-obs",4 h
same,half-life,"[3]; 80 mg/kg, doses of 40 and 80 mg/kg intraperitoneal, read-out: plasma half-life",1.2 to 1.8 h
same,time for tumours to reach RTV4,[4]; 100 umol/kg dose,approximately 26 days
same,tumour response at the higher doses tested,[4]; 30 to 133 umol/kg/dose,regressed the tumours
same,tumour response,[5],regressed following each drug administration
same,median survival time,[6]; q2dx3,18 days
same,median survival time,[6]; q3dx3,20 days
same,median survival time,[6]; q4dx3,21 days
same,median survival time,[6]; q5dx3,22 days
same,metabolism of prodrug and release of FGFR inhibitor compound 112 in tumours,[7],hypoxia-selective metabolism
same,fold less potent than the inhibitor compound 112 at inhibiting proliferation (deactivation),"H520 cells; H520, oxic",307 fold
same,"Hypoxic Cytotoxicity Ratio (HCR), H520",H520 cells; ratio of oxic and anoxic IC50,27
same,IC50,"H520 cells; read-out: Cellular Anti-proliferative IC50, H520, Anoxic, 4 hours of anoxia, remainder of assay oxic",47 nM
same,IC50,H520 cells; [8],1260 nM
same,fold less potent than the inhibitor compound 112 at inhibiting proliferation (deactivation),"SUM52 cells; SUM52, oxic",296 fold
same,"Hypoxic Cytotoxicity Ratio (HCR), SUM52",SUM52 cells; ratio of oxic and anoxic IC50,12
same,IC50,"SUM52 cells; read-out: Cellular Anti-proliferative IC50, SUM52, Anoxic, 4 hours of anoxia, remainder of assay oxic",17 nM
same,IC50,SUM52 cells; [9],207 nM
